One assay has as its target T1, human TRPM8 (Homo sapiens, UniProt Q7Z2W7).
T1 construct: expressed in transfected cells; host or cells: HEK-293
Put plainly: TRPM8 Protocol-FLIPR Assay (intracellular Ca2+ in transfected HEK-293 cells). Format: cell-based. The conditions noted are these: for EC50 values compared with Comp 4: comparison with the EC50 value of Comp 4. On the procedure: To determine whether TRPM8 is activated, the intracellular calcium ion (Ca^2+) level was measured from transfected cells with the TRPM8 receptor sequence (SEQ ID NO: 1). HEK-293 (human embryonic kidney) cells stably transfected with human TRPM8 were grown in 15 mL growth medium (high glucose DMEM (Dulbecco's Modification of Eagle's Medium) supplemented with 10% FBS (fetal bovine serum), 100 μg/mL penicillin/streptomycin, 5 μg/mL blasticindin, and 100 μg/mL zeocin) in a 75 cm^2 flask for 3 days at 37° C. in a mammalian cell culture incubator (Forma Scientific Model 3110, Marietta, Ohio) set at 5% CO2. Cells were detached with addition of 2 mL of trypsin-EDTA buffer (GIBCO® 25200, Invitrogen, Grand Island, N.Y.) for about 2-3 min. Trypsin was inactivated by addition of 8 mL growth medium. Cells were transferred to a 50 mL tube and centrifuged at 850 rpm for 3 minutes to remove medium. After centrifugation, a pellet of cells was formed in the bottom of the tube separating them from the supernatant solution. The supernatant was discarded and the cell pellet was suspended in 1 mL of fresh growth medium to which 5 μL (12.5 μg) of Fluo-4 AM (Molecular Probes, Inc., Eugene, Oreg.) calcium indicator was added and incubated for 30 min with gentle shaking. Fluo-4 AM is a fluorescent dye used for quantifying cellular Ca^2+ concentrations in the 100 nM to 1 μM range. At the end of 30 minutes, 45 mL of assay buffer (1×HBSS (Hank's Balanced Salt Solution), 20 mM HEPES (4-(2-Hydroxyethyl)-1-piperazineethanesulfonic acid)) was added to wash cells and the resulting mixture was then centrifuged at 850 rpm for 3 minutes at 20° C. to remove excess buffer and Fluo-4 AM calcium indicator.
The pelleted cells were re-suspended in 10 mL assay buffer and 90 μL aliquots (50,000 cells) per well delivered to a 96-well assay plate containing 10 μL of test compounds (1 mM in assay buffer, final concentration 100 μM) or buffer control and incubated at room temperature for 30 minutes. After 30 minutes, a plate (Falcon 353219, Corning Corning N.Y.) was placed into a fluorometric imaging plate reader (FLIPR384 from Molecular Devices, Sunnyvale, Calif.) and basal fluorescence recorded (excitation wave length 488 nm and emission wave length 510 nm). Then 20 μL of 100 mM of TRPM8 agonist WS5 coolant in the assay buffer was added and fluorescence recorded. For determining the direct effect of test compounds on TRPM8, fluorescence was measured immediately after addition of each compound. Additional discussion of the FLIPR method can be found in Smart et al., Characterization using FLIPR of human vanilloid VR1 receptor pharmacology, European Journal of Pharmacology 417, 51-58 (2001) and Liu et al., Development and validation of a platelet calcium flux assay using a fluorescent imaging plate reader, Analytical Biochemistry 357, 216-224 (2006).
The magnitude of the fluorescence of the active-treated cells was compared to the magnitude of the fluorescence from a benchmark agonist (WS-5), as described above. The percentage of fluorescence as a function of active dose was plotted and a sigmoidal curve was generated. Curve fitting from this dose-response curve yielded the value for TRPM8 EC50 in μM found in TABLE 8.
TRPM8 activation was determined by measuring intracellular calcium ion (Ca^2+) level from transfected cells with the TRPM8 receptor gene, as described in EXAMPLE 12, the results of which are shown in TABLE 8. EC50 values are provided in column 3 of TABLE 8, which measured the concentration of activating compound needed to […]. […]

The conditions of assay [1]: concentration where the cooling effect could be clearly recognized; cited from earlier work.
[2] abbreviates: HEK-293 cells stably transfected with human TRPM8, fluorescence compared to benchmark agonist WS-5, dose-response curve fit, read-out: TRPM8 Activity EC50.
Setting [3] is: less than about 1 μM, 0.6 μM, or the EC50 value of Comp 3, read-out: EC50 values.

Structures can show the parent of a compound that is named as a salt. Where two headings read alike, the source gives them in different places.

Usually EC50 stands for the concentration at which the effect is half-maximal.

T1 sequence (Q7Z2W7 whole entry): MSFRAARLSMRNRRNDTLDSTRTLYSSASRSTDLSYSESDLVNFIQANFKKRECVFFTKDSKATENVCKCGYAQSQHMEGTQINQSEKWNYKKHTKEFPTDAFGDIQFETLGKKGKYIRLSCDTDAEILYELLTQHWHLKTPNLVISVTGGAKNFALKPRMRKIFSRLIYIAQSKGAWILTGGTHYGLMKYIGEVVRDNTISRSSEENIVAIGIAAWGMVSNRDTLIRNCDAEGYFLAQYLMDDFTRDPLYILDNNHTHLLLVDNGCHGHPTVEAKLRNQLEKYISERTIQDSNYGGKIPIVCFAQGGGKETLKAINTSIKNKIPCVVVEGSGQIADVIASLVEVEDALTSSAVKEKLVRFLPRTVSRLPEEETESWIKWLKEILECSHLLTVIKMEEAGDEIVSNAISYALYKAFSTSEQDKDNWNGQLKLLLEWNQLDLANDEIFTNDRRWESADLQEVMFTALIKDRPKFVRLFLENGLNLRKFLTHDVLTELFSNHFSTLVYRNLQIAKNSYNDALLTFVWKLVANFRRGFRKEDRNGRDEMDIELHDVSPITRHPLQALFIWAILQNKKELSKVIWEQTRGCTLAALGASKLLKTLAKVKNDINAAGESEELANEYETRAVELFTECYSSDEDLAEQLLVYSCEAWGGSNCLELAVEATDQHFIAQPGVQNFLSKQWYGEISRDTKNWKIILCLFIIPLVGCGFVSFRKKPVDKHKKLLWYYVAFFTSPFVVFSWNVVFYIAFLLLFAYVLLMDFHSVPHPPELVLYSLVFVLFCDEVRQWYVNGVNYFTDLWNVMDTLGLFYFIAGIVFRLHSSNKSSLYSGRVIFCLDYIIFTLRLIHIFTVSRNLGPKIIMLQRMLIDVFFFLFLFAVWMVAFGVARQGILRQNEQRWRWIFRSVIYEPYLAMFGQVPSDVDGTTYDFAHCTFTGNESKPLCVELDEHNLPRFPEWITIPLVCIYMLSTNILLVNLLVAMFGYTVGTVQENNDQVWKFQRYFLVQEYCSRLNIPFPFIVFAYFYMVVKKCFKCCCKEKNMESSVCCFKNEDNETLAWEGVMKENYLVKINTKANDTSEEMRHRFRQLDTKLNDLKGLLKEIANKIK

Regarding `N[C@H](CNC(=O)c1ccccc1)c1ccccc1` [Comp 1, reference compound], the half-maximal effective concentration (EC50) on human TRPM8 (setting [2]) was more than 10000 nM.
Take `Cc1ccc(C(C)C)c(OC(=O)C[C@@H](N)c2ccccc2)c1` [Comp 2, reference compound]: on human TRPM8 (setting [2]), the EC50 is 12000 nM.
Regarding `CC(C)[C@@H]1CC[C@@H](C)C[C@H]1C(=O)Nc1ccc(CC#N)cc1` [Comp 3, reference compound], at human TRPM8 (setting [2]), the EC50 came to 600 nM.
As for `CC(C)[C@@H]1CC[C@@H](C)C[C@H]1C(=O)NC[C@@H](NC(=O)[C@H](C)N)c1ccccc1` [Comp 4, reference compound], the EC50 at human TRPM8 (setting [2]) was 9 nM.
With `CC(C)[C@@H]1CC[C@@H](C)C[C@@H]1O` [Compound 1-neomenthol, 1-neomenthol], the cooling threshold result in assay [1] is on record as “about 3,000 ppb”.
Turning to `NCC(=O)N[C@H](CNC(=O)c1ccccc1)c1ccccc1` [Compound 1a, (S)-2-((2-benzamido-1-phenylethyl)amino)-2-oxoethan-1-aminium chloride], the values for the concentration for a half-maximal effect (EC50) on human TRPM8 (setting [2]) and on human TRPM8 (setting [3]) were 655 nM and less than 1000 nM, respectively.
Taken in the same sequence, the figures for `C[C@@H](N)C(=O)N[C@H](CNC(=O)c1ccccc1)c1ccccc1` [Compound 1c, (R)-1-(((S)-2-benzamido-1-phenylethyl)amino)-1-oxopropan-2-aminium chloride] were 582 nM and less than 1000 nM.
On to `C[C@@H](N)C(=O)N[C@H](CNC(=O)c1cccnc1)c1ccccc1` [Compound 2c, (R)-1-(((S)-2-(nicotinamido)-1-phenylethyl)amino)-1-oxopropan-2-aminium chloride], for which, at human TRPM8 (setting [2]), the EC50 was 28000 nM.
As for `CC(C)=CCC/C(C)=C/C(=O)NC[C@@H](NC(=O)CN)c1ccccc1` [Compound 4a, (S,E)-2-((2-(3,7-dimethylocta-2,6-dienamido)-1-phenylethyl)amino-2-oxoethan-1-aminium chloride], at human TRPM8 (setting [2]), the EC50 stood at 1200 nM.
Turning to `CC(C)=CCC/C(C)=C/C(=O)NC[C@@H](NC(=O)[C@@H](C)N)c1ccccc1` [Compound 4b, (R)-1-(((S)-2-((E)-3,7-dimethylocta-2,6-dienamido)-1-phenylethyl)amino)-1-oxopropan-2-aminium chloride], the EC50 on human TRPM8 (setting [2]) was 1450 nM.
Regarding `Cc1ccc(C(C)C)c(C(=O)NC[C@@H](NC(=O)CN)c2ccccc2)c1.Cl` [Compound 6a, (S)-2-((2-(2-isopropyl-5-methylbenzamido)-1-phenylethyl)amino-2-oxoethan-1-aminium chloride], the EC50 on human TRPM8 (setting [2]) is 1.9 nM; on human TRPM8 (setting [3]), less than 1000 nM.
As to `Cc1ccc(C(C)C)c(C(=O)NC[C@@H](NC(=O)CN)c2ccccc2)c1.Cl` [Compound 6a], on human TRPM8, the “EC50 values compared with Comp 4” value is “about the same or less than the EC50 value of Comp 4”.
With `Cc1ccc(C(C)C)c(C(=O)NC[C@@H](N)c2ccccc2)c1` [Compound 6b, (S)-2-(2-isopropyl-5-methylbenzamido)-1-phenylethan-1-aminium chloride], the 50% effective concentration (EC50) is 155 nM at human TRPM8 (setting [2]) and less than 1000 nM on human TRPM8 (setting [3]).
As for `Cc1ccc(C(C)C)c(C(=O)NC[C@@H](NC(=O)[C@@H](C)N)c2ccccc2)c1.Cl` [Compound 6c, (R)-1-(((S)-2-(2-isopropyl-5-methylbenzamido)-1-phenylethyl)amino)-1-oxopropan-2-aminium chloride], the EC50 on human TRPM8 (setting [2]) was 3.2 nM; at human TRPM8 (setting [3]), less than 1000 nM. Besides, the “EC50 values compared with Comp 4” value at human TRPM8 is listed as “about the same or less than the EC50 value of Comp 4”.
Regarding `Cc1ccc(C(C)C)c(C(=O)NC[C@@H](NC(=O)[C@H](C)N)c2ccccc2)c1.Cl` [Compound 6d, (S)-1-(((S)-2-(2-isopropyl-5-methylbenzamido)-1-phenylethyl)amino)-1-oxopropan-2-aminium chloride], the figures for the concentration giving a half-maximal response (EC50) on human TRPM8 (setting [2]) and at human TRPM8 (setting [3]) were 6.6 nM and less than 1000 nM, respectively. Also, the “EC50 values compared with Comp 4” value at human TRPM8 is “about the same or less than the EC50 value of Comp 4”.
As to `Cc1ccc(C(C)C)c(OC(=O)C[C@@H](NC(=O)CN)c2ccccc2)c1` [Compound 7a, (R)-2-((3-(2-isopropyl-5-methylphenoxy)-3-oxo-1-phenylpropyl)amino-2-oxoethan-1-aminium chloride], the EC50 on human TRPM8 (setting [2]) was 230 nM; on human TRPM8 (setting [3]) it was less than 1000 nM.
Consider `Cc1ccc(C(C)C)c(OC(=O)C[C@@H](NC(=O)[C@@H](C)N)c2ccccc2)c1` [Compound 7b, (R)-1-(((R)-3-(2-isopropyl-5-methylphenoxy)-3-oxo-1-phenylpropyl)amino)-1-oxopropan-2-aminium chloride], for which the half-maximal effective concentration (EC50) is 60 nM on human TRPM8 (setting [2]) and less than 1000 nM at human TRPM8 (setting [3]).
For `CC(C)C(C)(C(=O)OC[C@@H](NC(=O)[C@H](C)N)c1ccccc1)C(C)C` [Compound 8a, (S)-2-((S)-2-aminopropanamido)-2-phenylethyl 2-isopropyl-2,3-dimethylbutanoate hydrochloride] the same measures were 415 nM and less than 1000 nM.
For `CC(C)C(C)(C(=O)OC[C@@H](NC(=O)[C@@H](C)N)c1ccccc1)C(C)C` [Compound 8b, (S)-2-((R)-2-aminopropanamido)-2-phenylethyl 2-isopropyl-2,3-dimethylbutanoate hydrochloride], the EC50 at human TRPM8 (setting [2]) was 57 nM; at human TRPM8 (setting [3]), less than 1000 nM.
Turning to `CC(C)C(C)(C(=O)NC[C@@H](OC(=O)CN)c1ccccc1)C(C)C.Cl` [Compound 10a, (S)-2-(2-isopropyl-2,3-dimethylbutanamido)-1-phenylethyl glycinate hydrochloride], the EC50 was 7.85 nM at human TRPM8 (setting [2]) and less than 1000 nM at human TRPM8 (setting [3]). Besides, the “EC50 values compared with Comp 4” value at human TRPM8 is on record as “about the same or less than the EC50 value of Comp 4”.
With `NCC(=O)O[C@H](CNC(=O)C12CC3CC(CC(C3)C1)C2)c1ccccc1` [Compound 11a, (S)-2-((3S,5S,7S)-adamantane-1-carboxamido)-1-phenylethyl glycinate hydrochloride], the EC50 at human TRPM8 (setting [2]) was 17.2 nM; at human TRPM8 (setting [3]) it was less than 1000 nM.
Regarding `CC(C)[C@@H]1CC[C@@H](C)C[C@H]1O` [L-menthol], in assay [1], the cooling threshold result is reported as “about 800 ppb”.
`CC(C)[C@@H]1CC[C@@H](C)C[C@@H]1O` [d-neomenthol]: the cooling threshold entry in assay [1] is listed as “about 25,000 ppb”.

The values are drawn from patent US20190330141A1, “Compositions With A Cooling Effect” (The Procter & Gamble Company, priority 2018, published 2019).
